Measurements: patent US20220362174A1, “Use of R-enantiomer Beta2-agonists for prevent and treatment of pulmonary inflammation and inflammatory remodeling for reduced adverse effects” (priority 2019, published 2022)
“Also recorded” adds a separate entry of the source.

Tests used:
[1] = system: RAW264.7 cells; test: Cell viability, CCK-8 assay; format: cell-based; conditions: up to 100 μM, with or without LPS (100 ng/mL)
[2] = system: iNOS; test: iNOS mRNA and protein levels; format: cell-based
Procedure: In addition, the concentration of NO in the culture supernatant was measured by assaying the concentrations of nitrite (a stable NO breakdown product) using the Griess assay. […] To investigate (R)-salbutamol role on the level of iNOS, the mRNA and protein levels of iNOS were determined.

[3] = system: LPS-induced RAW264.7 cells; test: Seahorse analysis of OCR and ECAR; format: cell-based; conditions: LPS-treated cells
Procedure: (§1) Macrophages were treated without or with (R)/(S)-salbutamol for 1 h prior to LPS stimulation and subsequently incubated for 12 h. […] The fluorescence of the oxidized product (2′,7′-dichlorofluorescein, DCF) was assessed using an LSM710 Laser Scanning Confocal Microscope (Carl Zeiss, Jena, Germany). The concentration of NO in the culture supernatant was measured by assaying the concentrations of nitrite (a stable NO breakdown product) using the Griess assay (Beyotime, Shanghai, China), according to the manufacturer's instructions. The intracellular NO level was detected using the NO-sensitive fluorescence probe DAF-FM DA (Sigma, St. Louis, Mo., USA) (24). Cells were labeled with DAF-FM DA (10 μM) at 37° C. for 30 min and were gently washed three times with PBS. Fluorescence was detected using a LSM710 Laser Scanning Confocal Microscope (Scale bars, 100 μm) (Carl Zeiss, Jena, Germany).
Macrophage activation elicited different metabolic profiles. LPS-induced macrophages adopted glycolytic metabolic profiles. This invention disclosed a β2 adrenergic receptor mediated Warburg metabolism (aerobic glycolysis) of in LPS treated macrophages. The OCR and ECAR were measured using an extracellular flux analyzer. […] ECAR is a measurement extracellular acidification rate, an indication of cellular glycolytic rate.

[4] = system: OVA induced asthma mice; test: Combination therapy of ipratropium with RS-, R- and S-salbutamol: airway resistance in response to methacholine; format: in vivo
Procedure: OVA sensitized/challenged asthma model Mice were sensitized and challenged with ovalbumin (OVA) or normal saline. […] On days 21, 22 and 23, the mice were challenged with 1% OVA in saline (0.01 g/mL) for 20 min via. a nebulizer (PART Turbo boy). […] In vivo airway responsiveness to methacholine (Mch) was assessed on day 28 in conscious, freely moving, spontaneously breathing mice by a whole-body plethysmography (Buxco Electronics Inc.). […] Before Mch challenge, a 20 μL drug aerosol or saline was given to the mice because of the short-acting bronchodilating effect of terbutaline. The degree of bronchoconstriction was expressed as enhanced pause (Penh), a calculated dimensionless value that correlates with measurement of airway resistance, impedance, and intrapleural pressure. […] Methods used were similar as mentioned above. Nebulized aerosol of saline, Methacholine 2 mg/ml (low dose) or 10 mg/ml (high dose) were given via inhalation to OVA induced asthma mice.

[5] = system: macrophages from the peritoneal fluid; test: LPS-induced proliferation and polarization of macrophages from the peritoneal fluid (sepsis); format: in vivo
Excerpt: Macrophage activation and proliferation was considered to be the key step of initiation and development of sepsis. In one embodiment, LPS (PAMPs from bacteria) induced a proliferation and polarization of macrophages from the peritoneal fluid. […] These inhibitory effects can be blocked by using specific β2-recepter blocker.

[6] = system: LPS-induced RAW264.7 cells; test: mRNA expression of TNF-α, IL-1β and MCP-1 by quantitative real-time PCR; format: cell-based; conditions: pretreated prior to LPS
Procedure: as §1
To examine the mRNA expression of TNF-α, IL-1β and MCP-1, quantitative real-time PCR was performed. Consistent with the cytokine expression study, the mRNA expression of TNF-α was increased by 2.26-fold in the LPS-induced group compared to the control group (FIG. 8D). The mRNA expression of IL-1β and MCP-1 increased by 12.74-fold (FIG. 8E) and 3.1-fold, respectively, in the LPS-induced group compared to the control group (FIG. 8F).

[7] = system: LPS-induced RAW264.7 cells; test: Intracellular ROS (DCFH-DA); format: cell-based
Procedure: as §1
LPS can promote cell apoptosis through mitochondrial dysfunction, and mitochondria are the major source of ROS.

[8] = system: NF-κB and MARK pathways; test: NF-κB and MARK pathways, cytokines and ROS in LPS sepsis
Excerpt: LPS interacts with pathogen recognition receptors such as TLRs would also activate NF-κB and MARK pathways, which would further lead to an over-production of cytokines. […] The “cytokine storm” in sepsis involves in excessive release of INFs, IL-1B, IL-2,4,6,10,12, TNFa and MCP etc.
In sepsis, there are also over productions of chemokines such as ROS. […] This invention disclosed the similar effects of other RS-racemic, S-enantiomer or R-enantiomer beta2 agonists including: salbutamol, bambuterol, vilanterol, clenterol, salmeterol, formoterol, trantinterol and Indacaterol and other β2 agonists.

[9] = system: BALB/c mice; test: Survival study after LPS challenge (sepsis); format: in vivo; conditions: for Percent of death after LPS challenges, 24 h: Saline + LPS 36.4; for Percent of death after LPS challenges, 36 h: Saline + LPS 72.7; for Percent of death after LPS challenges, 48 h / Percent of death after LPS challenges, 72 h / Percent of death after LPS challenges, 144 h: Saline + LPS 90.9; for Percent of death after LPS challenges, 12 h: Saline + LPS 0; for rate of mortality/death after LPS challenge (in words): in comparison of LPS challenged group without pretreatment (mortality 90.9%)
Procedure: Treatment were given intraperitoneally for 3 consecutive days. One hour after the 3rd day treatments, LPS (15 mg/kg) was administered intraperitoneally. The animals were monitored. Survival rate was then recorded every 12 h for 144 hours.

## CC(C)(C)NC[C@H](O)c1ccc(O)c(CO)c1 [R-salbutamol, (R)-Salbutamol]
[1]
  cell viability: no changes in cell viability
[2]; LPS+ (R)-salbutamol vs LPS
  iNOS protein levels: same changes
[2]; pretreated plus LPS, vs LPS
  iNOS mRNA level: decreased; also recorded: inhibited
[3]
  ECAR, aerobic glycolysis: inhibited the aerobic glycolysis; also recorded: significantly reduced aerobic glycolysis
[4]
  increase in airway resistant in response to methacholine (in words): significantly diminished
[4]; response to methacholine, OVA + Saline 445%
  increase in airway resistance after treatment: 180%
[5]; LPS sepsis
  number of macrophages from the peritoneal fluid: significantly reduced toward normal level
[5]; in comparison of sepsis condition
  polarized M1 macrophages or M2 macrophages: significant reduction
[6]; LPS alone 2.26-fold of control
  mRNA level of TNF-α: significantly decreased
[6]; LPS alone 3.1-fold of control
  mRNA level of MCP-1: significantly decreased
[6]; LPS alone 12.74-fold of control
  mRNA level of IL-1β: significantly decreased
[7]; LPS-induced cells
  production/levels of ROS (in words): significantly decreased
[7]; pretreated before LPS, LPS increased 7.30-fold
  decrease of the level of DCF (ROS): 3.38 fold
[8]; LPS sepsis
  over production of inducible NO (iNO) and another ROS: significantly prevent and inhibit
[8]; sepsis
  production or release of cytokines (cytokine storm): significantly reduced
[9]; 0.1 mg/kg + LPS
  Percent of death after LPS challenges, 24 h: 20%
  Percent of death after LPS challenges, 36 h: 20%
  Percent of death after LPS challenges, 48 h: 40%
  Percent of death after LPS challenges, 72 h: 40%
  Percent of death after LPS challenges, 144 h: 40%
[9]; 0.1 mg/kg i.p. 3 days + LPS 15 mg/kg
  Percent of death after LPS challenges, 12 h: 0%
[9]; 0.5 mg/kg + LPS
  Percent of death after LPS challenges, 12 h: 0%
  Percent of death after LPS challenges, 24 h: 0%
  Percent of death after LPS challenges, 36 h: 0%
  Percent of death after LPS challenges, 48 h: 0%
  Percent of death after LPS challenges, 72 h: 0%
  Percent of death after LPS challenges, 144 h: 0%
[9]; 0.5 mg/kg + saline (no LPS)
  Percent of death, 12 h: 0%
  Percent of death, 24 h: 0%
  Percent of death, 36 h: 0%
  Percent of death, 48 h: 0%
  Percent of death, 72 h: 0%
  Percent of death, 144 h: 0%
[9]
  rate of mortality/death after LPS challenge (in words): survived
[9]; listed as (R)-salbutamol
  rate of mortality/death after LPS challenge (in words): greatly reduced or even diminished
